What all share (assay): growth of human tumour cells (NCI), 48 h
In assay [1] the test system is SK-MEL-5 melanoma.
Assay [2] relates to SW-620 colon.
Assay [3] deals with DMS 273 small cell lung.
Assay [4] deals with HOP-62 NSCLC.
The subject of assay [5] is ACHN renal.
For assay [6], the system named is DLD-1 colon.
For assay [7], the system named is SNB-78 CNS.
Assay [8] has as its system MALME-3M melanoma.
The subject of assay [9] is SNB-19 CNS.
The subject of assay [10] is XF 498 CNS.
Assay [11] has as its system DMS 114 small cell lung.
The test system of assay [12] is LXFL 529 NSCLC.
The test system of assay [13] is M19-MEL melanoma.
In assay [14] the test system is HOP-18 NSCLC.
The subject of assay [15] is KM20L2 colon.

“And” between values parts separate entries of the source, which are not always exact repeats. Identical values can stand only once.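 Interpolation was linear, between the two tested concentrations surrounding the appropriate level; five concentrations were tested over 48 hours in 96-well plates. Definition used: TGI = concentration required for complete inhibition of growth.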 Some results are limits rather than exact numbers.

With `C[n+]1ccc(-c2cc[n+](C)cc2)cc1`, the TGI is over 35.6 µM in assay [1]; over 100 µM in [2]; over 38.5 µM in [3]; 66.5 µM in [4]; over 100 µM in [5]; over 47.2 µM in [6]. In addition, the TGI in assay [7] is over 58.4 µM; in assay [8], 0.981 µM; in assay [9], over 100 µM; in [10], 17 µM; in [11] it was over 24.7 µM; in assay [12], over 53.3 µM. Besides, the TGI in [13] was over 21.6 µM; in assay [14], over 100 µM; in assay [15], over 100 µM.

In the case of `O=C1c2cscc2C(=O)C1(O)O`, the TGI in assay [1] is over 100 µM; in assay [2], 42.1 µM; in assay [4], over 100 µM; in assay [5], over 100 µM; in assay [8], 54.8 µM; in assay [9], over 100 µM.

Regarding `COc1ccc2oc(=O)c(CC=C(C)C)c(O)c2c1C`, the TGI in assay [1], in assay [2], in assay [4], in assay [5], in [8] and in assay [9] was over 100 µM throughout.

`CC(C)(C)CC(C)(C)N=C(N)NO`: the TGI in [1] is over 100 µM; in assay [2], over 100 µM; in [4] it was over 100 µM; in [5], 23.4 µM; in assay [8] it was over 100 µM; in assay [9] it was over 100 µM.

Take `CC(C)Oc1ccc(CNC2=NCCO2)c2ccccc12`: the TGI in assay [1] is 26.3 µM; in assay [2] it was 31.7 µM; in assay [4], 30.8 µM; in assay [5], 27.7 µM; in [8], 28 µM; in assay [9] it was 23 µM.

With `Cc1ccsc1C(=O)C(CC(=O)c1cccs1)c1ccsc1` (stereo not drawn), the TGI in [1], in [2], in assay [4], in [5], in assay [8] and in [9] was over 100 µM in each case.

Regarding `CSCCCNC(=O)c1csc(-c2csc(CCN)n2)n1`, the TGI in [1], in assay [2], in [4], in assay [5], in assay [8] and in assay [9] was over 100 µM throughout.

As to `COc1ccc([C@H]2C=C(c3cc(F)c(Cl)cc3Cl)NC(=S)N2)cc1`, the TGI was 27.2 µM in assay [1]; over 100 µM in assay [2]; over 100 µM in assay [4]; over 100 µM in assay [5]; over 100 µM in assay [8]; over 100 µM in assay [9].

In the case of `O=C(O)Cc1cccc2c1OC(c1ccccc1)C(C(=O)c1ccccc1)C2=O` (stereo not drawn), the TGI in assay [1], in [2], in [4], in assay [5], in [8] and in assay [9] was over 100 µM in each case.

Consider `COc1ccccc1N1C(=O)CS(=O)(=O)C1c1cccc(Oc2ccccc2)c1` (stereo not drawn), for which the TGI in [1] is 28.9 µM; in [2] it was 82.8 µM; in assay [4], 49.2 µM; in assay [5], 33.7 µM; in assay [8], 30 µM; in assay [9], 38.7 µM.

For `COc1cc(S(=O)(=O)Nc2nc(-c3ccc(N)cc3)cs2)ccc1Cl`, the TGI in assay [1], in [2], in [4], in assay [5], in assay [8] and in [9] was over 100 µM throughout.

`CC1(c2nc3ccccc3[nH]2)CCC(C(N)=O)C(C)(C)O1` (stereo not drawn): the TGI in assay [1], in assay [2], in [4], in assay [5], in [8] and in assay [9] was over 100 µM throughout.

Take `COC(=O)[C@@H]1C2OC(C)(C)OC2CN1C(=O)OCc1ccccc1` (stereo partly drawn): the TGI in assay [1], in assay [2], in assay [4], in assay [5], in [8] and in assay [9] was over 100 µM each time.

With `COC(=O)[C@]12CCC(C)(C)C[C@H]1C1=CC[C@@H]3[C@@]4(C)CC[C@H](OC5OC(CO)C(O)C(O)C5OC5OC(CO)C(O)C(O)C5O)C(C)(C)[C@@H]4CC[C@@]3(C)[C@]1(C)CC2` (stereo partly drawn), the TGI in assay [1] came out at 29.3 µM; in [2], 27.7 µM; in assay [4] it was 25.3 µM; in assay [5], 20.5 µM; in assay [8] it was 25.2 µM; in assay [9], 29.6 µM.

With `CCCNC(C#N)c1ccc(OCCCCCCCCCCOc2ccc(C(C#N)NCCC)cc2)cc1` (stereo not drawn), the TGI in [1], in [2], in assay [4], in [5], in [8] and in assay [9] was over 100 µM each time.

As for `NC1=CN(Cc2ccccc2)C2=N/C(=C\c3ccccc3)C(=O)N12`, the TGI in [1], in assay [2], in assay [4], in [5], in assay [8] and in assay [9] was over 100 µM each time.

Turning to `N#Cc1c(C#N)c(-c2ccco2)n(-c2ccccc2)c1N`, the TGI in assay [1], in assay [2], in [4], in [5], in assay [8] and in [9] was over 100 µM each time.

On to `CC(C)c1c(O[Si](C(C)C)(C(C)C)C(C)C)c2c3c(ccc4c3c1OC4(C)C)C(C)CC2` (stereo not drawn), for which the TGI in assay [1], in [2], in assay [4], in [5], in assay [8] and in assay [9] was over 100 µM throughout.

As to `O=C(O)c1nc2ccccc2nc1Nc1ccc(F)cc1`, the TGI in assay [1] was 54.2 µM; in assay [2] it was over 100 µM; in assay [4], over 100 µM; in assay [5], over 100 µM; in assay [8], over 100 µM; in assay [9], over 100 µM.

For `COc1cc(Br)cc2nc(-c3cccs3)oc12`, the TGI in assay [1] was over 100 µM; in [2] it was over 100 µM; in [4], over 92.1 µM; in [5] it was over 100 µM; in assay [8], over 100 µM; in assay [9] it was over 100 µM.

Turning to `O=C1CSC(c2ccc(Cl)cc2)N1c1ccc(-c2ccc(-n3c(-c4ccccc4)nc4ccccc4c3=O)cc2)cc1` (stereo not drawn), the TGI in [1], in assay [2], in assay [4], in assay [5], in [8] and in assay [9] was over 100 µM throughout.

Turning to `CC(C)(C)OC(=O)NC(Cc1ccc(OCc2ccccc2)cn1)C(=O)NCc1ccccc1` (stereo not drawn), the TGI was 26 µM in assay [1]; over 100 µM in assay [2]; 56.1 µM in assay [4]; over 100 µM in assay [5]; 65.7 µM in [8]; over 100 µM in [9].

Consider `Cn1c(=O)c2c(nc(N)n2C2OC(CO)C(O)C2O)n(C)c1=O` (stereo not drawn), for which the TGI in assay [1], in [2], in assay [4], in assay [5], in assay [8] and in [9] was over 100 µM in each case.

For the molecule `O=C(Nc1sccc1S(=O)(=O)c1ccc(Cl)cc1)C(F)(F)F`, the TGI in assay [1] was 38.8 µM; in [2], over 100 µM; in assay [4], over 100 µM; in assay [5], over 100 µM; in assay [8], over 100 µM; in [9], over 100 µM.

Consider `CCOC(=O)CCC(NC(=O)c1ccc(Nc2nc3ccccc3n3cccc23)cc1)C(=O)OCC` (stereo not drawn), for which the TGI is over 100 µM in [1]; over 100 µM in assay [2]; 54.2 µM in assay [4]; 46 µM in assay [5]; over 100 µM in assay [8]; over 100 µM in [9].

Turning to `OCc1ccc2c(c1)CC1(C2)Cc2cc3c(cc2C1)CCC3`, the TGI was over 31.2 µM in assay [1]; over 31.6 µM in assay [2]; over 46.5 µM in assay [4]; over 82.4 µM in [5]; over 100 µM in [8]; over 100 µM in assay [9].

Turning to `Cc1ccc(CC2(OCCN(C)C)CCC(C(C)(C)C)CC2)cc1` (stereo not drawn), the TGI in assay [1] is 2.94 µM and 2.97 µM; in assay [2] it was 5.84 µM and 8 µM; in [4], 11.1 µM and 8.4 µM; in assay [5], 19.1 µM and 20.5 µM; in assay [8], 3.36 µM and 3.64 µM; in [9], 16.6 µM and 16.8 µM.

Consider `COc1ccc2oc(=O)c3c(c2c1C)OC(C)(C)C=C3`, for which the TGI in [1], in assay [2], in assay [4], in assay [5], in [8] and in assay [9] was over 100 µM throughout.

With `CC#Cc1cc2c(cc1O)CC[C@@H]1[C@@H]2CC[C@]2(C)[C@@H](O)CC[C@@H]12`, the TGI in assay [1] is 13.8 µM; in assay [2], 11.1 µM; in assay [4] it was 16 µM; in [5] it was over 69.6 µM; in [8], 18.3 µM; in assay [9], 29.1 µM.

On to `O=C(/C=C\c1ccccc1)Oc1ccc(/C=C2\CCCCC2=O)cc1`, for which the TGI in assay [1], in assay [2], in [4], in assay [5], in assay [8] and in assay [9] was over 100 µM throughout.

As to `Nc1nc(Cl)cc(NCC2(CO)CCC(O)C2)n1` (stereo not drawn), the TGI in [1], in assay [2], in [4], in assay [5], in assay [8] and in assay [9] was over 100 µM throughout.

As for `CC1=C(C#N)C2C(=C(N)Oc3ccccc32)C(N)=N1` (stereo not drawn), the TGI in assay [1] was 49.5 µM; in assay [2], over 100 µM; in assay [4] it was over 100 µM; in assay [5] it was 81.8 µM; in [8] it was 35.5 µM; in assay [9], 56.3 µM.

As to `C[C@]12CC[C@H](O)C=C1CC[C@@H]1[C@@H]2CC[C@]2(C)C(=N/O)/C(=C/c3ccncc3)C[C@@H]12`, the TGI is 18 µM in [1]; over 100 µM in [2]; 30.9 µM in [4]; 23.8 µM in assay [5]; 48.5 µM in [8]; 32 µM in assay [9].

Take `O=C(NCCNCCNCCNC(=O)c1cc(-c2ccccc2)nc2ccccc12)c1cc(-c2ccccc2)nc2ccccc12`: the TGI in [1] came out at 2.88 µM; in assay [2], 3.31 µM; in assay [4], 5.96 µM; in assay [5], 4.91 µM; in [8], 3.31 µM; in assay [9] it was 8.93 µM.

In the case of `CCCc1c(C(=O)OCC)[nH]c(-c2ccc(-c3[nH]c(C(=O)OCC)c(CCC)c3C(=O)OCC)o2)c1C(=O)OCC`, the TGI in assay [1], in [2], in assay [3], in [5], in [6] and in assay [7] was over 100 µM each time. Moreover, the TGI in [8], in assay [9], in assay [10], in [11], in assay [12] and in [13] was over 100 µM in each case. In addition, the TGI in assay [14] and in assay [15] was over 100 µM in each case.

Turning to `Cc1cc(S(=O)(=O)NC2=NC(c3ccccc3)c3ccccc3N2)c(S)cc1Cl` (stereo not drawn), the TGI in assay [1], in assay [2], in assay [4], in [5], in [8] and in [9] was over 100 µM throughout.

Values taken from PubChem BioAssay (NCI).
